Test results taken from ChEMBL document CHEMBL1201862, “PubChem BioAssay data set” (2004).
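Step 1: Grow cells in 96-well plates. Step 2: Expose to compound for 48 hours at 5 concentrations. Step 3: Interpolate endpoints linearly; if unreached, use highest concentration. GI50: concentration for 50% inhibition of growth.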 Active and inactive are the calls of the source. Cut-off read from the data, not from the text of the source: active = GI50 up to about 1.1 µM and inactive = higher.

Columns and labels:
Experiment in all cases: NCI-60 cell line screen, 48 h
EKVX = test system: EKVX
SNB-78 = test system: SNB-78
Malme-3M = test system: Malme-3M
M19-MEL = test system: M19-MEL
NCI-H23 = test system: NCI-H23
OVCAR-8 = test system: OVCAR-8
RXF 393 = test system: RXF 393
HCT-15 = test system: HCT-15
A498 = test system: A498
HOP-62 = test system: HOP-62
KM12 = test system: KM12
HOP-92 = test system: HOP-92
A549 = test system: A549
OVCAR-5 = test system: OVCAR-5
HOP-18 = test system: HOP-18
DMS-273 = test system: DMS-273
M14 = test system: M14
TK-10 = test system: TK-10
DU-145 = test system: DU-145
ACHN = test system: ACHN

Row | SMILES | GI50 (EKVX) | GI50 (SNB-78) | GI50 (Malme-3M) | GI50 (M19-MEL) | GI50 (NCI-H23) | GI50 (OVCAR-8) | GI50 (RXF 393) | GI50 (HCT-15) [µM] | GI50 (A498) | GI50 (HOP-62) | GI50 (KM12) | GI50 (HOP-92) | GI50 (A549) | GI50 (OVCAR-5) | GI50 (HOP-18) | GI50 (DMS-273) | GI50 (M14) | GI50 (TK-10) | GI50 (DU-145) | GI50 (ACHN)
1 | Cc1nc(O)nc(O)c1/C=C/C(=O)O | > 1000 µM (inactive) | > 1000 µM (inactive) | > 1000 µM (inactive) | > 1000 µM (inactive) | > 1000 µM (inactive) | > 1000 µM (inactive) | > 1000 µM (inactive) | > 1000 | > 1000 µM (inactive) | > 1000 µM (inactive) | > 1000 µM (inactive) | 56.6 µM (inactive) | > 1000 µM (inactive) | > 891 µM (inactive) | > 1000 µM (inactive) | > 1000 µM (inactive) |  |  |  | 
2 | CCN1c2ccccc2-n2c(C)nnc2-c2c(-c3ccccc3)n[nH]c21 | 49.7 µM (inactive) |  |  |  | 35.5 µM (inactive) | 24.7 µM (inactive) | 44.5 µM (inactive) | 11.1 |  |  | 26.5 µM (inactive) | 50.7 µM (inactive) | 22.4 µM (inactive) | > 100 µM (inactive) |  |  | 26.4 µM (inactive) | 41.4 µM (inactive) | 36.1 µM (inactive) | 14.3 µM (inactive)
3 | Cc1cc(NC(=S)Nc2ccccc2)c(NC(=S)Nc2ccccc2)cc1C | 39.3 µM (inactive) |  | 37.8 µM (inactive) | 23.3 µM (inactive) | 37.2 µM (inactive) | 40.1 µM (inactive) | > 46.8 µM (inactive) | 13.8 | 36.1 µM (inactive) | 15.5 µM (inactive) | 5.11 µM (inactive) | 41.9 µM (inactive) | 23.3 µM (inactive) | > 65 µM (inactive) | 43.2 µM (inactive) | 17 µM (inactive) |  |  |  | 
4 | O=C(N/C(=C\c1ccccc1[N+](=O)[O-])c1nc2ccccc2[nH]1)c1ccccc1 |  | 92.7 µM (inactive) | > 100 µM (inactive) | > 100 µM (inactive) | > 100 µM (inactive) | 71.3 µM (inactive) | 56.1 µM (inactive) | 88.9 |  |  | > 100 µM (inactive) | 40.1 µM (inactive) |  | > 100 µM (inactive) |  | > 100 µM (inactive) | > 100 µM (inactive) | > 100 µM (inactive) |  | 
5 | CCOc1ncn(-c2ccc(NC(=S)Nc3ncccn3)cc2)n1 | 64 µM (inactive) |  |  |  | 81.5 µM (inactive) | 24.8 µM (inactive) |  | 39 |  | > 100 µM (inactive) | > 100 µM (inactive) | 33.5 µM (inactive) | 32.1 µM (inactive) | 54.8 µM (inactive) |  |  | 31.5 µM (inactive) | 41.3 µM (inactive) | 66.8 µM (inactive) | 
6 | CC(=O)OC1COC(N2c3ccccc3[C@@H]3CCc4c([nH]c5ccccc45)[C@@H]32)C(OC(C)=O)C1OC(C)=O.CC(=O)OC1COC(N2c3ccccc3[C@H]3CCc4c([nH]c5ccccc45)[C@H]32)C(OC(C)=O)C1OC(C)=O (some centres undefined) | 19 µM (inactive) |  | > 100 µM (inactive) |  | 57.8 µM (inactive) |  |  | 47 | 17.7 µM (inactive) | > 100 µM (inactive) | 12.1 µM (inactive) | 57.7 µM (inactive) | 16.7 µM (inactive) | > 100 µM (inactive) |  |  | 42.6 µM (inactive) | > 100 µM (inactive) | > 100 µM (inactive) | 
7 | CC1=Nc2c(N)nc(N)nc2N(C)C1 | > 100 µM (inactive) |  | > 100 µM (inactive) |  | > 100 µM (inactive) | > 100 µM (inactive) | > 100 µM (inactive) | > 100 |  | > 100 µM (inactive) | > 100 µM (inactive) |  |  | > 100 µM (inactive) |  |  | > 100 µM (inactive) | > 100 µM (inactive) | > 100 µM (inactive) | > 100 µM (inactive)
8 | CC(Sc1ccccc1)C(CO)(CO)[N+](=O)[O-] (centres undefined) | 18.2 µM (inactive) | 22.3 µM (inactive) | 18.9 µM (inactive) | 16.4 µM (inactive) | 16.8 µM (inactive) | 14.8 µM (inactive) | 16.4 µM (inactive) | 11.5 |  | 18.2 µM (inactive) |  |  | 19.8 µM (inactive) | 22.3 µM (inactive) | 21.9 µM (inactive) | 16.7 µM (inactive) | 16.9 µM (inactive) | 18.9 µM (inactive) |  | 16.9 µM (inactive)
9 | CCC1C(C#N)=C(O)NC(O)=C1C#N | > 100 µM (inactive) | > 100 µM (inactive) | > 100 µM (inactive) | > 100 µM (inactive) | > 100 µM (inactive) | > 100 µM (inactive) | > 100 µM (inactive) | > 100 | > 100 µM (inactive) | > 100 µM (inactive) | > 100 µM (inactive) | > 100 µM (inactive) | > 100 µM (inactive) | > 100 µM (inactive) | > 100 µM (inactive) | > 100 µM (inactive) | > 100 µM (inactive) | > 100 µM (inactive) |  | > 100 µM (inactive)
10 | CCP(=O)(CC)C(Cl)(Cl)C(O)C(Cl)(Cl)Cl (centres undefined) |  |  |  |  | > 100 µM (inactive) | > 100 µM (inactive) |  | > 100 |  | > 100 µM (inactive) |  | > 100 µM (inactive) | > 100 µM (inactive) | > 100 µM (inactive) |  |  | > 100 µM (inactive) | > 100 µM (inactive) | > 100 µM (inactive) | > 100 µM (inactive)
11 | O=C(CCN1CCOCC1)/C(=C/c1ccccc1)c1ccccc1 | 8.18 µM (inactive) | 5.51 µM (inactive) | 2.24 µM (inactive) | 3.82 µM (inactive) | 4.15 µM (inactive) | 1.95 µM (inactive) | 1.57 µM (inactive) | 2.19 | 10.1 µM (inactive) | 26.1 µM (inactive) | 6.25 µM (inactive) | 3.5 µM (inactive) | 15.6 µM (inactive) | 16.6 µM (inactive) | 16.7 µM (inactive) | 6.28 µM (inactive) |  |  |  | 
12 | C=C1C(=O)OC2C[C@@]3(C)CCCC(=C)C3CC12 (some centres undefined) | 17.1 µM (inactive) | 3.27 µM (inactive) | 3.52 µM (inactive) |  | 13.7 µM (inactive) | 11.7 µM (inactive) | 2.77 µM (inactive) | 10.9 | 6.89 µM (inactive) | 20.5 µM (inactive) | 2.24 µM (inactive) | 4.26 µM (inactive) | 12.2 µM (inactive) | 19.5 µM (inactive) | 17.5 µM (inactive) | 2.54 µM (inactive) | 6.34 µM (inactive) | 11.4 µM (inactive) |  | 14 µM (inactive)
13 | CC(=O)c1c(-c2ccco2)c(C#N)c(=S)n(C2OC(CO)C(O)C(O)C2O)c1-c1ccccc1 (centres undefined) | 43.1 µM (inactive) |  | 63.2 µM (inactive) |  | 31.8 µM (inactive) | 81.8 µM (inactive) | 37 µM (inactive) | 73.3 |  | 47.6 µM (inactive) | 64.3 µM (inactive) |  | > 100 µM (inactive) | > 100 µM (inactive) |  |  | 40.5 µM (inactive) | > 100 µM (inactive) | 87.3 µM (inactive) | > 100 µM (inactive)
